Source: patent US20100028366A1, “SYNERGISTIC EFFECT BETWEEN A […] AND ANOTHER OXIDATIVE INDUCING SYSTEM FOR TREATING TUMORS” (priority 2005, published 2010)

What was measured:
W&Wlis cells [1] = experiment: Analysis of the type of death by flow cytometry (annexin V-FITC/propidium iodide); type: cell-based, canine; design: Necrosis / Apoptosis: unit not given here; settings: Without GO
Protocol: The annexin V-FITC and propidium iodide assay was performed in parallel by flow cytometry. The pattern of death of the system was analyzed when adding 5 mEU/ml of glucose oxidase and the combined therapy (5 mEU/ml of GO and 500 μg/ml of linamarin) at 48 hours, followed by the control of untreated cells and of the cells incubated with 500 μg/ml of linamarin at 96 hours. Furthermore, another group of cells was subjected to the same conditions except 10 mM of N-acetyl cysteine (NAC) were added. The cells treated with the combined therapy were subsequently studied at 48 hours in the absence and presence of 100 μM of Z-VAD-fmk, followed by the control of treatment of the cells with UV in the same conditions. Finally, the cells treated with the combined therapy were shown at 48 hours in the absence and presence of 300 μM of 1,5-isoquinolinediol (DIQ), observing that the pattern of death is not modified when PARP-1 is inhibited (FIG. 4).
10^5 W&Wlis cells were seeded in test tubes with a screw-on cap and flat side (Nunc). After 24 hours, different amounts of linamarin (50, 200 or 500 μg/ml) and glucose oxidase (5 mEU/ml) were added in the specified cases. In the appropriate assays, the medium was supplemented with N-acetyl cysteine (10 mM), 1,5-isoquinolinediol (300 μM) or Z-VAD-fmk (100 μM). […] They were centrifuged for 5 minutes at 1200 rpm and the cell precipitate was washed first with PBS and then with binding buffer (0.1 M Hepes/NaOH pH 7.4, 1.4 M NaCl and 25 mM CaCl2). The cells were again precipitated and resuspended in 100 μl of binding buffer supplemented with 5 μl of annexin V-FITC and 2.5 μg/ml of propidium iodide. The samples were incubated for 15 minutes in the dark. Data acquisition and analysis was carried out by means of a FACSCalibur flow cytometer (DB Biosciences) with the Cell Quest program.

W&Wlis cells [2] = experiment: Determination of the extracellular peroxide concentration; type: cell-based, canine; settings: 48 hours; 0.5 mg/ml of linamarin and/or 5 mEU/ml of glucose oxidase; control approximately 20 μM
Protocol: The H2O2 levels (FIG. 3B) produced extracellularly in the combined therapy were further studied in the invention. To do so, the amount of H2O2 present in the culture medium of W&Wlis cells at 48 hours in a treatment with 0.5 mg/ml of linamarin, in the presence of 5 mEU/ml of glucose oxidase or in the combination of both treatments, was analyzed although positive results were also obtained using other concentrations.
The samples to be analyzed were diluted in 1 ml of 0.1 M phosphate buffer pH 7.4. Then 3.7 EU/ml of peroxidase (Sigma-Aldrich, St. Louis, USA) and 0.1 mg/ml of ortho-dianisidine (Sigma-Aldrich, St. Louis, USA) were added. The samples were incubated at room temperature for 30 minutes and absorbances at 436 nm were determined. The H2O2 concentration was obtained by interpolation of the data obtained in a standard line performed with increasing concentrations of H2O2.

W&Wlis tumors = experiment: Xenotransplant model, W&Wlis tumors in immunodeficient mice; type: in vivo; settings: intratumoral
Protocol: In addition, a dose range for linamarin was evaluated in immunodeficient (nude) mice weighing 20 grams, inoculated with W&W tumor cells which stably expressed linamarase (W&Wlis). When the tumor reached an approximate size of 50 mm^3, the mice were treated with a daily dose of intratumoral linamarin at different concentrations (0.5; 0.35; 0.25 or 0.10 mg lin/g of weight of the animal).
Another approach carried out for the invention was the use of adenoviruses carrying the linamarase gene (adenolis) in W&W cell tumors induced in immunodeficient mice. 10^6 cells were subcutaneously inoculated in both flanks in mice (n=18). Part of the animals (n=8) received W&Wlis cells which already expressed linamarase, while others (n=10) were inoculated with W&W cells and only when the tumor had developed was it locally infected with adenolis. The animals inoculated with W&Wlis were treated daily with 0.25 mg lin and 0.1 EU GO/g in the largest tumor at the beginning of treatment (approximately 50 mm^3) (FIGS. 7G and 7H). The animals showing W&W tumors were treated with infection cycles with 10^9 IU of adenolis, followed by a two-day treatment with 0.25 mg lin and 0.1 EU GO/g (FIGS. 7I and 7J). The progression of the tumors was evaluated every two days.
Immunodeficient (nude strain), athymic mice weighing approximately 20 grams and 2 months old were used. They were inoculated with 1-2×10^6 cells (W&W or W&Wlis) subcutaneously in both flanks of the mice by means of an injection with a volume of 50 μl in complete PBS (supplemented with calcium and magnesium ions) with 0.1% glucose. The size of the tumors (pi π/6×height×width×length) was measured with a calibrator.
A large group of mice (n=8) were inoculated with 1-2×10^6 W&Wlis cells as previously described. When the tumors reached a mean size of 30-50 mm^3, the tumors of one flank were treated daily with 0.25 mg of linamarin and 0.1 EU of glucose oxidase/g of weight of the animal. When the untreated tumors reached a size of about 2000 mm^3 the animals were sacrificed and it was considered the end of treatment. The data was analyzed statistically by Student's t test, considering a level of significance of 5%.

[3] = 50 μg lin, 96 hours, NAC (10 mM)
[4] = 200 μg lin, 96 hours, NAC (10 mM)
[5] = 500 μg lin, 96 hours, NAC (10 mM)
[6] = Table 4, 50 μg lin, 72 hours, Z-VAD-fmk (100 μM)
[7] = Table 4, 50 μg lin, 72 hours, control (no Z-VAD-fmk)
[8] = Table 4, 200 μg lin, 72 hours, Z-VAD-fmk (100 μM)
[9] = Table 4, 200 μg lin, 72 hours, control (no Z-VAD-fmk)
[10] = Table 4, 500 μg lin, 72 hours, Z-VAD-fmk (100 μM)
[11] = Table 4, 500 μg lin, 72 hours, control (no Z-VAD-fmk)

CC(C)(C#N)O[C@@H]1O[C@H](CO)[C@@H](O)[C@H](O)[C@H]1O [lin, 2-hydroxy-isobutyronitrile-β-D-glucopyranoside]
Apoptosis (W&Wlis cells [1]; 50 μg lin, 48 h): 3.71
Necrosis (W&Wlis cells [1]; 50 μg lin, 48 h): 2.96
Apoptosis (W&Wlis cells [1]; 50 μg lin, 72 h): 3.74
Necrosis (W&Wlis cells [1]; 50 μg lin, 72 h): 5.28
Apoptosis (W&Wlis cells [1]; 50 μg lin, 96 h): 20.83
Necrosis (W&Wlis cells [1]; 50 μg lin, 96 h): 11.33
Apoptosis (W&Wlis cells [1]; [3]): 6.44
Necrosis (W&Wlis cells [1]; [3]): 51.89
Apoptosis (W&Wlis cells [1]; 200 μg lin, 48 h): 3.84
Necrosis (W&Wlis cells [1]; 200 μg lin, 48 h): 5.68
Apoptosis (W&Wlis cells [1]; 200 μg lin, 72 h): 4.62
Necrosis (W&Wlis cells [1]; 200 μg lin, 72 h): 9.34
Apoptosis (W&Wlis cells [1]; 200 μg lin, 96 h): 14.31
Necrosis (W&Wlis cells [1]; 200 μg lin, 96 h): 45.15
Apoptosis (W&Wlis cells [1]; [4]): 21.58
Necrosis (W&Wlis cells [1]; [4]): 29.18
Apoptosis (W&Wlis cells [1]; 500 μg lin, 48 h): 5.17
Necrosis (W&Wlis cells [1]; 500 μg lin, 48 h): 5.54
Apoptosis (W&Wlis cells [1]; 500 μg lin, 72 h): 6.25
Necrosis (W&Wlis cells [1]; 500 μg lin, 72 h): 6.91
Apoptosis (W&Wlis cells [1]; 500 μg lin, 96 h): 18.99
Necrosis (W&Wlis cells [1]; 500 μg lin, 96 h): 24.98
Apoptosis (W&Wlis cells [1]; [5]): 18.53
Necrosis (W&Wlis cells [1]; [5]): 19.89
Apoptosis (W&Wlis cells [1]; [6]): 3.48
Necrosis (W&Wlis cells [1]; [6]): 15.01
Apoptosis (W&Wlis cells [1]; [7]): 1.36
Necrosis (W&Wlis cells [1]; [7]): 14.72
Apoptosis (W&Wlis cells [1]; [8]): 2.56
Necrosis (W&Wlis cells [1]; [8]): 13.07
Apoptosis (W&Wlis cells [1]; [9]): 3.30
Necrosis (W&Wlis cells [1]; [9]): 30.13
Apoptosis (W&Wlis cells [1]; [10]): 6.08
Necrosis (W&Wlis cells [1]; [10]): 13.24
Apoptosis (W&Wlis cells [1]; [11]): 9.02
Necrosis (W&Wlis cells [1]; [11]): 18.04
extracellular H2O2 concentration in the culture medium (W&Wlis cells [2]): did not cause significant variations
therapeutic effect on tumor growth (W&Wlis tumors; 0.1 mg lin/g daily, n=4): no therapeutic effect
therapeutic effect on tumor growth (W&Wlis tumors; 0.25 mg lin/g daily, after the tenth day of treatment, p=0.05, n=6): significant reduction of the growth of the treated tumor
death of animals (W&Wlis tumors; 0.35 mg lin/g daily, fifth day of treatment): death of three of the four animals
death of animals (W&Wlis tumors; 0.5 mg lin/g daily, between the fourth and fifth day of treatment): all the animals
